The source made the active and inactive calls. No cut-off for these calls is given here.
Legend:
[1] = molecular target: RAF proto-oncogene serine/threonine-protein kinase (Homo sapiens, UniProt P04049); test: Inhibition of full length recombinant c-RAF (unknown origin) using MEK1 as substrate after 1 hr by luminescence assay
HUVEC [2] = test: cells; details: Homo sapiens, 72 h
Description: (§1) Antiproliferative activity against HUVEC after 72 hrs by MTT assay

HepG2 = test: Cytotoxicity against human HepG2 cells by MTT assay
[3] = molecular target: T1, Bifunctional epoxide hydrolase 2 (Homo sapiens, UniProt P34913); test: Inhibition of human recombinant soluble epoxide hydrolase assessed as cyano(6-methoxy-naphthalen-2-yl)methyl trans-[(3-phenyloxyran-2-yl)methyl] carbonate conversion to 6-methoxy-2-naphthaldehyde preincubated for 5 mins prior to substrate addition by fluorescence assay
T1 sequence (P34913 whole entry): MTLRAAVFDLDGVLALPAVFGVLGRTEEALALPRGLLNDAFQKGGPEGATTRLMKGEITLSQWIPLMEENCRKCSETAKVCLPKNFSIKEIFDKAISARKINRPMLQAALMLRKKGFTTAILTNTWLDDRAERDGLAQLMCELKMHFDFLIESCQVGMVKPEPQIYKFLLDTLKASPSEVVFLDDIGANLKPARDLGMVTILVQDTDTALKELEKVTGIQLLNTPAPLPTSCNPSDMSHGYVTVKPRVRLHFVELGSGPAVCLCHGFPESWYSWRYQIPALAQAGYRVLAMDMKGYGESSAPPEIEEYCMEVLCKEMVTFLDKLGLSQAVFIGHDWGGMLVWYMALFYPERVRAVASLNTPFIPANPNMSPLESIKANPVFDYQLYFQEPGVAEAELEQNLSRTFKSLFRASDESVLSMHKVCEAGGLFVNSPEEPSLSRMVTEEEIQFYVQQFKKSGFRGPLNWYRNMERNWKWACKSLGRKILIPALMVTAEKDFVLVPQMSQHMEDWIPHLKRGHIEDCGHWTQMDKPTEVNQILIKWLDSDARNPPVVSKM

Huh-7 = test: Cytotoxicity against human HuH7 cells by MTT assay
[4] = molecular target: Vascular endothelial growth factor receptor 2 (Homo sapiens) (UniProt P35968); test: Inhibition of VEGFR-2 (unknown origin) at 10 uM after 1 hr by luminescence assay
Vascular endothelial growth factor receptor 2 (Homo sapiens), sequence (P35968 whole entry): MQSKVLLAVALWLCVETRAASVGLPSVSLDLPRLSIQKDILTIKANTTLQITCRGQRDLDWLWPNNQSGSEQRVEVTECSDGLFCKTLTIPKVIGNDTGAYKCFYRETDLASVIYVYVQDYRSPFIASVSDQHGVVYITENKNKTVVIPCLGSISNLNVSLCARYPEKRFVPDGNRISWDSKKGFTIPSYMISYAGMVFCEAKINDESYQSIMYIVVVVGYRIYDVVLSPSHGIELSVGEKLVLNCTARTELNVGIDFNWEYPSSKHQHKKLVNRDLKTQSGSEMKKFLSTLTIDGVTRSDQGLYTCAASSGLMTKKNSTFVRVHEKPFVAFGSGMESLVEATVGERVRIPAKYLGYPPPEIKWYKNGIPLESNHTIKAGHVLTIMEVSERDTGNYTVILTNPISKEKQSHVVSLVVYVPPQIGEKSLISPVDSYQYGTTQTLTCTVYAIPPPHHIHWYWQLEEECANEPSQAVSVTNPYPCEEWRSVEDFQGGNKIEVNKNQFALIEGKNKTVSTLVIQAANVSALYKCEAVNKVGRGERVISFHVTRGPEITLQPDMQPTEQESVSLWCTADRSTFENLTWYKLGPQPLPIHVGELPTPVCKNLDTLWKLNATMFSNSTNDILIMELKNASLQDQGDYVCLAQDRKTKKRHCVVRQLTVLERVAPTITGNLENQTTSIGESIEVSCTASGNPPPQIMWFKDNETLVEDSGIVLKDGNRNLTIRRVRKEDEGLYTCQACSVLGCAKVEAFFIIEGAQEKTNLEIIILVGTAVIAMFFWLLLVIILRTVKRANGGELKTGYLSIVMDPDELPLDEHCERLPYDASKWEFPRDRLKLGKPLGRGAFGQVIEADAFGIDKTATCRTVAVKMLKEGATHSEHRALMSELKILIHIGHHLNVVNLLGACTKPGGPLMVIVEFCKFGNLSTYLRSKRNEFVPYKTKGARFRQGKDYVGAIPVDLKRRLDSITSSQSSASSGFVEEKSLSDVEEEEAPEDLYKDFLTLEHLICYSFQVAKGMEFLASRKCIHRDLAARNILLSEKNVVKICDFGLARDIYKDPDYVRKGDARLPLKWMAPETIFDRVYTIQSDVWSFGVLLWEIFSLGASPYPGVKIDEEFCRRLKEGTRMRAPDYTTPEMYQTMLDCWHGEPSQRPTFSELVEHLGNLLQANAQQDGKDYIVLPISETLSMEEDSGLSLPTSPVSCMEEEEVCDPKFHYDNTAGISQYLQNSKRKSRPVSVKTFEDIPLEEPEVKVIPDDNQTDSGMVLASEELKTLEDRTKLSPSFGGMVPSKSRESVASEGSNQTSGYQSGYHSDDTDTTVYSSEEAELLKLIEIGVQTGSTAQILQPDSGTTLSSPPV

[5] = molecular target: Serine/threonine-protein kinase B-raf (Homo sapiens, UniProt P15056, V600E); test: Inhibition of B-RAF V600E mutant (unknown origin) using MEK1 as substrate
[6] = molecular target: Tyrosine-protein kinase ABL2 (Homo sapiens) (UniProt P42684); test: Inhibition of recombinant ABL-2 (unknown origin) at 10 uM
[7] = molecular target: Glycogen synthase kinase-3 alpha (Homo sapiens) (UniProt P49840); test: Inhibition of recombinant GSK3alpha (unknown origin) at 10 uM
Glycogen synthase kinase-3 alpha (Homo sapiens), sequence (P49840 2-483 limits assumed): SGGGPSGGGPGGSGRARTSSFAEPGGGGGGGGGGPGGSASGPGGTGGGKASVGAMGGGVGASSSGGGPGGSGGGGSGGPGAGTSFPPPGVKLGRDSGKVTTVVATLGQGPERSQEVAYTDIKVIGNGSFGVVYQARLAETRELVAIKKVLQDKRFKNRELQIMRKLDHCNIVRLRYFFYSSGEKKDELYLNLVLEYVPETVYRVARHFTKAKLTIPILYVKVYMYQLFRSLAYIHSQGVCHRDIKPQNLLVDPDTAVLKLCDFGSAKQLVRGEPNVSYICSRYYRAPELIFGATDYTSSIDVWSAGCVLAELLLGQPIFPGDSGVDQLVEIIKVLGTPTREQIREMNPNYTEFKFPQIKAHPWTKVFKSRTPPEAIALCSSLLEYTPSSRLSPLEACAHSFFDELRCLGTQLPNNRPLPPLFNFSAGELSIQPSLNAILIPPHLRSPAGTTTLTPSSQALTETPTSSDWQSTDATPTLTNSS

[8] = molecular target: T2, 3-phosphoinositide-dependent protein kinase 1 (Homo sapiens) (UniProt O15530); test: Inhibition of recombinant PDPK-1 (unknown origin) at 10 uM
T2 sequence (whole entry): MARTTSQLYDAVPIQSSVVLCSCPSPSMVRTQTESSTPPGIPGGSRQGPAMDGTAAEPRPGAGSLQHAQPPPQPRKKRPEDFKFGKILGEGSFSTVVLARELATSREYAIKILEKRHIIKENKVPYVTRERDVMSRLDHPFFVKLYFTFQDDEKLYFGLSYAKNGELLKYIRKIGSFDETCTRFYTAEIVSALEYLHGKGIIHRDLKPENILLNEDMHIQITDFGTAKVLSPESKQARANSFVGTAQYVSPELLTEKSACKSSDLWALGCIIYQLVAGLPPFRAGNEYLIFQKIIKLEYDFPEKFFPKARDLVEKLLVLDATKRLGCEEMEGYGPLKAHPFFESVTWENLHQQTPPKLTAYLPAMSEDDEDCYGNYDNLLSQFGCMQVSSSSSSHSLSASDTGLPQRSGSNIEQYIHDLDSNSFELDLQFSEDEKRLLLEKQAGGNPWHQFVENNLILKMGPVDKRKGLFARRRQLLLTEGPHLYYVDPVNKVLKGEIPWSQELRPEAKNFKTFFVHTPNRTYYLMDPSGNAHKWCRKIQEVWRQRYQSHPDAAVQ

[9] = molecular target: Platelet-derived growth factor receptor alpha (Homo sapiens) (UniProt P16234); test: Inhibition of recombinant PDGFRalpha (unknown origin) at 10 uM
[10] = molecular target: Fibroblast growth factor receptor 2 (Homo sapiens) (UniProt P21802); test: Inhibition of recombinant FGFR-2 (unknown origin) at 10 uM
[11] = molecular target: Receptor-type tyrosine-protein kinase FLT3 (Homo sapiens) (UniProt P36888); test: Inhibition of recombinant FLT-3 (unknown origin) at 10 uM
Receptor-type tyrosine-protein kinase FLT3 (Homo sapiens), sequence (P36888 whole entry): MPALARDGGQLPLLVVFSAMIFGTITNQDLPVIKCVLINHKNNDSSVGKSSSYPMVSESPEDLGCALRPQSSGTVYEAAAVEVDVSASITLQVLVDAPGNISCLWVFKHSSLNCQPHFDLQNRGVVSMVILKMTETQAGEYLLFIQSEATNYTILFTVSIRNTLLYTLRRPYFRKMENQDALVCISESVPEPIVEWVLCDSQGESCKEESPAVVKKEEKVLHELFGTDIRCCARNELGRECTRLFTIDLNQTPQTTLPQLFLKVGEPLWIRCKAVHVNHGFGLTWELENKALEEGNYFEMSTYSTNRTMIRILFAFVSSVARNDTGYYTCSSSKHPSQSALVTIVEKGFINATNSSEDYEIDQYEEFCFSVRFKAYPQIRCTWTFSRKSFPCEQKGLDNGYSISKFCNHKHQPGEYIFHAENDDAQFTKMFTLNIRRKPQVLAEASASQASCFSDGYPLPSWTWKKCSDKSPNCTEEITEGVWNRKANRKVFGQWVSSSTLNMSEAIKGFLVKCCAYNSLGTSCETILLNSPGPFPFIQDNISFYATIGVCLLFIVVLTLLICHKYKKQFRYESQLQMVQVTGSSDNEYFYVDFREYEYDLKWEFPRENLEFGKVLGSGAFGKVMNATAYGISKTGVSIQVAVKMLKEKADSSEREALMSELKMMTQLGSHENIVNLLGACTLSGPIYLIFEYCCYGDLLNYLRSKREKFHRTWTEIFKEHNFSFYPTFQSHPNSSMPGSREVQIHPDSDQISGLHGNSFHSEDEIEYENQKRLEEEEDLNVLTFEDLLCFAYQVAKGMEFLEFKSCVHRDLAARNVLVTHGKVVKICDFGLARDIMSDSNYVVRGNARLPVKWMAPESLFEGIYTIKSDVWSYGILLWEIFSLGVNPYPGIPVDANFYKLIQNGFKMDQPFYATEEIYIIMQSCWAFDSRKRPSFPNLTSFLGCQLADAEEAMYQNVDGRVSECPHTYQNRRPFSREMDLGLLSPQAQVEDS

[12] = molecular target: Vascular endothelial growth factor receptor 1 (Homo sapiens) (UniProt P17948); test: Inhibition of recombinant FLT-1 (unknown origin) at 10 uM
[13] = molecular target: Platelet-derived growth factor receptor beta (Homo sapiens) (UniProt P09619); test: Inhibition of recombinant PDGFRbeta (unknown origin) at 10 uM
Platelet-derived growth factor receptor beta (Homo sapiens), sequence (P09619 whole entry): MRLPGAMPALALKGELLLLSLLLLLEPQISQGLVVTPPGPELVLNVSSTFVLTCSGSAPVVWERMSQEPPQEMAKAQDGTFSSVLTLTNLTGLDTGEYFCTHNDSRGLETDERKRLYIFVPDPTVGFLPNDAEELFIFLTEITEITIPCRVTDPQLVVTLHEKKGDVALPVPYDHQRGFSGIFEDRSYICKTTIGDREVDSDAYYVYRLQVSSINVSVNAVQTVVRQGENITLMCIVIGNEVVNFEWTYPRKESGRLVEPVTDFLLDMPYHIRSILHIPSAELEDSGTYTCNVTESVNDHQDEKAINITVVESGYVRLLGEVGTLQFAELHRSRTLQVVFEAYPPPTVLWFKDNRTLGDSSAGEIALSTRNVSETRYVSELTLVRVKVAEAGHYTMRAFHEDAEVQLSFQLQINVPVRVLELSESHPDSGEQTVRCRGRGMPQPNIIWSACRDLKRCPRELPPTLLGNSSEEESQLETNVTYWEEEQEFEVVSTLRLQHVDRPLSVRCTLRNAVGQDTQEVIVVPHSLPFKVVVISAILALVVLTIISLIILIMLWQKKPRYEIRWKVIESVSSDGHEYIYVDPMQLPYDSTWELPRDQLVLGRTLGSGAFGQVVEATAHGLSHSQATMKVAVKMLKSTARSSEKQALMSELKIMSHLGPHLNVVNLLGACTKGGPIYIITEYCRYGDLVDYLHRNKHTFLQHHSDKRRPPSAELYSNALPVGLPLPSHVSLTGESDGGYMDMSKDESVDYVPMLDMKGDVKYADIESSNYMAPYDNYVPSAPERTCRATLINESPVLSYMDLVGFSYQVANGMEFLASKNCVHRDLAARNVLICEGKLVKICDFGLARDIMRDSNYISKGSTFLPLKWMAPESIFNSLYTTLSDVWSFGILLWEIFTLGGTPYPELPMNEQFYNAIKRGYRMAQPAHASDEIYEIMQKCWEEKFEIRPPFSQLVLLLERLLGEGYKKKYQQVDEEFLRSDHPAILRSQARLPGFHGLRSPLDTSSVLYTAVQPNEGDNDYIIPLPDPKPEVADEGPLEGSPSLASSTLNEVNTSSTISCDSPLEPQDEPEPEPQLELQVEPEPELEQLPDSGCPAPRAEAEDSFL

[14] = molecular target: Vascular endothelial growth factor receptor 2 (Homo sapiens) (UniProt P35968); test: Inhibition of recombinant KDR (unknown origin) at 10 uM
[15] = molecular target: Hepatocyte growth factor receptor (Homo sapiens) (UniProt P08581); details: at 10 µM
Description: Inhibition of recombinant MET (unknown origin) at 10 uM

HUVEC [16] = test system: HUVEC
Description: as §1

RAF proto-oncogene serine/threonine-protein kinase, sequence (P04049 whole entry): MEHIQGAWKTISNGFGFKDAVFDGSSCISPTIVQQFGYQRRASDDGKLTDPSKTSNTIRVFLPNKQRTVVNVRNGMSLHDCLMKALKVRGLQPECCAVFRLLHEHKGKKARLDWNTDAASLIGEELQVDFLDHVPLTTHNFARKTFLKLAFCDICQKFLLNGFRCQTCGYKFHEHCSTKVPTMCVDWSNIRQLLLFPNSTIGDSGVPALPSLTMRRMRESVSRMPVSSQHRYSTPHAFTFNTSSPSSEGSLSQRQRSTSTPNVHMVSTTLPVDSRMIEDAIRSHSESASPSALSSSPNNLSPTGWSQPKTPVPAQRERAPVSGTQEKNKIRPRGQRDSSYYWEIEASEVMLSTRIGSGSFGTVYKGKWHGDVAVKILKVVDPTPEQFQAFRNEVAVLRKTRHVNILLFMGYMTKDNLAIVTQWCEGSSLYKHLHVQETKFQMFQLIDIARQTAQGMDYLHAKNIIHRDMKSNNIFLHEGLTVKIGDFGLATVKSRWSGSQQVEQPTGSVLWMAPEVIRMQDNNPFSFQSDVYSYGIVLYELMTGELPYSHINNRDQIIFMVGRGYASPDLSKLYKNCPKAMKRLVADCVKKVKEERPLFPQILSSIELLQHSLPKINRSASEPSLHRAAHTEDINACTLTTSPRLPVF

SMILES | IC50 [1] [µM] | GI50 (HUVEC [2]) [µM] | GI50 (HepG2; Homo sapiens, HepG2) [µM] | IC50 [3] [µM] | GI50 (Huh-7; Homo sapiens, Huh-7) [µM] | other results
O=C(Nc1ccc(Cl)c(C(F)(F)F)c1)N[C@H]1CC[C@H](Oc2ccc(C(=O)O)cc2)CC1 | 4.3 | 25 | > 25 | 0.0005 | > 25 | –
CS(=O)(=O)N1CCC(NC(=O)Nc2ccc(OC(F)(F)F)cc2)CC1 | > 10 | > 25 | > 25 | – | > 25 | –
CNC(=O)c1cc(O[C@H]2CC[C@H](NC(=O)Nc3ccc(OC(F)(F)F)cc3)CC2)ccn1 | > 10 | > 25 | 7 | – | 7 | –
CNC(=O)c1ccc(O[C@H]2CC[C@H](NC(=O)Nc3ccc(Cl)c(C(F)(F)F)c3)CC2)cn1 | – | 10.5 | 7 | – | 8 | inhibition [4]: Active
CNC(=O)c1ccc(O[C@H]2CC[C@H](NC(=O)Nc3ccc(Cl)c(C(F)(F)F)c3)CC2)cc1 | – | > 25 | > 25 | – | 16 | –
CNC(=O)c1cc(Oc2ccc(NC(=O)NC34CC5CC(CC(C5)C3)C4)cc2)ccn1 | 1 | 25 | 10 | – | 7 | IC50 [5]: > 5 µM; inhibition [4]: Active
O=C(Nc1ccc(Cl)c(C(F)(F)F)c1)N[C@H]1CC[C@H](Oc2cccc(C(=O)O)c2)CC1 | > 10 | 10.5 | > 25 | 0.0086 | > 25 | –
CNC(=O)c1ccc(O[C@H]2CC[C@H](NC(=O)Nc3ccc(OC(F)(F)F)cc3)CC2)cc1 | > 10 | > 25 | 7 | – | 5.5 | –
CNC(=O)c1cccc(O[C@H]2CC[C@H](NC(=O)Nc3ccc(Cl)c(C(F)(F)F)c3)CC2)c1 | 0.293 | 11 | 6.5 | 0.001 | 7.5 | –
CNC(=O)c1ccc(O[C@H]2CC[C@H](NC(=O)NC34CC5CC(CC(C5)C3)C4)CC2)cc1 | > 10 | > 25 | 7 | – | 5.5 | –
CNC(=O)c1cc(O[C@H]2CC[C@@H](NC(=O)Nc3ccc(Cl)c(C(F)(F)F)c3)CC2)ccn1 | – | 10 | 7.5 | – | 8.5 | –
O=C(NC12CC3CC(CC(C3)C1)C2)N[C@H]1CC[C@H](Oc2ccc(C(=O)O)cc2)CC1 | – | – | – | – | – | inhibition [6]: inactive; inhibition [7]: inactive; inhibition [8]: inactive; inhibition [9]: inactive; inhibition [10]: inactive; inhibition [11]: inactive; inhibition [12]: inactive; inhibition [13]: inactive; inhibition [14]: inactive
CN(C)C(=O)c1cc(O[C@H]2CC[C@H](NC(=O)Nc3ccc(Cl)c(C(F)(F)F)c3)CC2)ccn1 | > 10 | – | 10 | 0.0005 | 8 | –
CNC(=O)c1cc(Oc2ccc(NC(=O)Nc3ccc(OC(F)(F)F)cc3)cc2)ccn1 | – | > 25 | 7 | – | 7 | IC50 [5]: > 5 µM; inhibition [4]: Active
O=C(Nc1ccc(OC(F)(F)F)cc1)N[C@H]1CC[C@H](Oc2ccc(C(=O)O)cc2)CC1 | – | – | – | – | – | inhibition [6]: inactive; inhibition [7]: inactive; inhibition [8]: inactive; inhibition [15]: inactive; GI50 (HUVEC [16]): > 25 µM; inhibition [9]: inactive; GI50 (HepG2): 15 µM; inhibition [10]: inactive; GI50 (Huh-7): 20 µM; inhibition [11]: inactive; inhibition [12]: inactive; inhibition [13]: inactive; inhibition [14]: inactive
CCN(CC)CCNC(=O)c1c(C)[nH]c(/C=C2\C(=O)Nc3ccc(F)cc32)c1C [SUNITINIB] | – | – | – | > 10 | – | –
CNC(=O)c1cc(O[C@H]2CC[C@H](NC(=O)Nc3ccc(Cl)c(C(F)(F)F)c3)CC2)ccn1 | – | 11 | 7 | – | 8 | inhibition [4]: Active
CNC(=O)c1cc(Oc2ccc(NC(=O)Nc3ccc(Cl)c(C(F)(F)F)c3)c(F)c2)ccn1 [REGORAFENIB] | – | – | – | 0.0005 | – | –
